Data taken from patent US20260176290A1, “INHIBITORS OF KRAS(G12D)” (Ranok Therapeutics (Hangzhou) Co. Ltd., priority 2022, published 2026).

Legend:
[1] = system: SW1990 pancreatic adenocarcinoma cells [homozygous G12D]; experiment: Cancer cell line proliferation (CellTiter-Glo), SW1990; assay type: cell-based; conditions: Homo sapiens, 72 hr, read-out: CTG(IC50), ABS-72 H(nM) SW1990
Method: (§1) The following cancer cell lines were employed: AGS gastric carcinoma [heterozygous G12D] (ATCC, CRL-1739); A-427 lung carcinoma [heterozygous G12D] (ATCC, HTB-53); ASPC1 pancreatic adenocarcinoma [homozygous G12D] (ATCC, CRL-1682) and SW1990 pancreatic adenocarcinoma [homozygous G12D] (ATCC CRL-2172). Cell lines were cultured essentially according to ATCC recommendations.
(§2) AGS, A-427, ASPC1, SW1990, and GP2D cells were plated in 96-well tissue culture plates at 4,000 cells/well and incubated at 37° C./5% CO2 for 72 hr in 100 μl of media. 3-fold serial dilutions of each test compound were prepared ranging from 20 μM to 1.02 nM. Each cell line was then treated with test compounds at various concentrations with a final concentration of 0.5% DMSO/well, and then incubated at 37° C./5% CO2 for 72 hr. 100 μl of CellTiter-Glo® Reagent (Promega Corporation, Madison, WI) was added to each well and processed according manufacturer's protocol. Results were analyzed and IC50 5 values were calculated in GraphPad 7 software.

KRAS (G12D)/SOS1 = target: T1, KRAS (G12D)/SOS1 (Homo sapiens, UniProt P01116, G12D); experiment: KRAS (G12D)/SOS1 homogeneous time-resolved fluorescence (HTRF) assay; assay type: binding; conditions: absence of GTP, 4° C. for 3 hr
T1 construct: purchased Cisbio 63ADK000CB17PEH
Method: 3-fold serial dilutions of each test compound were prepared ranging from 20 μM to 1.02 nM. The test compound was mixed and incubated with reaction components, incubated in a sealed plate at 4° C. for 3 hr and fluorescence was measured using a PerkinElmer Envision plate reader. […]

[2] = system: A-427 lung carcinoma cells [heterozygous G12D]; experiment: Cancer cell line proliferation (CellTiter-Glo), A-427; assay type: cell-based; conditions: Homo sapiens, A427 cells, 72 hr, read-out: CTG(IC50), ABS-72 H(nM) A427
Method: as §1, §2

[3] = system: AGS gastric carcinoma cells [heterozygous G12D]; experiment: Cancer cell line proliferation (CellTiter-Glo), AGS; assay type: cell-based; conditions: Homo sapiens, 72 hr, read-out: CTG(IC50), ABS-72 H(nM) AGS
Method: as §1, §2

[4] = system: ASPC1 pancreatic adenocarcinoma cells [homozygous G12D]; experiment: Cancer cell line proliferation (CellTiter-Glo), ASPC1; assay type: cell-based; conditions: Homo sapiens, ASPC-1 cells, 72 hr, read-out: CTG(IC50), ABS-72 H(nM) ASPC-1
Method: as §1, §2

T1 sequence (P01116 1-188 isoform P01116-2 G12D): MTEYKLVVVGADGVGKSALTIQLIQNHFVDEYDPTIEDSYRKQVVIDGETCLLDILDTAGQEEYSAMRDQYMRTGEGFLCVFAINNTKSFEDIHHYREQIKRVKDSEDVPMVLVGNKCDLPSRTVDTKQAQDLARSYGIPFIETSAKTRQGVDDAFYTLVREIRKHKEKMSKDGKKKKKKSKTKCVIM

SMILES | IC50 [1] | IC50 (KRAS (G12D)/SOS1) | IC50 [2] | IC50 [3] | IC50 [4]
C#Cc1c(F)ccc2cc(O)cc(-c3nc(OC)c4c(N5CC6CCC(C5)N6)nc(OCC5(CN6CC7CC7C6)CC5)nc4c3F)c12 (stereo not drawn) [Example 2] | < 100 nM | < 0.1 µM | < 100 nM | < 100 nM | < 100 nM
C#Cc1c(F)ccc2cc(O)cc(-c3nc(OC)c4c(N5CC6CCC(C5)N6)nc(OCC5(CN6CCC(C(F)(F)F)CC6)CC5)nc4c3F)c12 [Example 3] | < 100 nM | < 0.1 µM | < 100 nM | < 100 nM | < 100 nM
C#Cc1cccc2cc(O)cc(-c3ncc4c(N5CC6CCC(C5)N6)nc(OCC5(CN6CCC(F)(F)CC6)CC5)nc4c3F)c12 [Example 5] |  | < 0.1 µM | < 100 nM | < 100 nM | < 100 nM
C#Cc1cccc2cc(O)cc(-c3ncc4c(N5CC6CCC(C5)N6)nc(OCC5(CN6CC(F)C6)CC5)nc4c3F)c12 [Example 6] |  | < 0.1 µM | < 100 nM | < 100 nM | 100 to 1000 nM
C#Cc1cccc2cc(O)cc(-c3ncc4c(N5CC6CCC(C5)N6)nc(OCC5(CN6CCC(F)CC6)CC5)nc4c3F)c12 [Example 7] | < 100 nM | < 0.1 µM | < 100 nM | < 100 nM | < 100 nM
C#Cc1cccc2cc(O)cc(-c3ncc4c(N5CC6CCC(C5)N6)nc(OCC5(CN6CC[C@H](F)C6)CC5)nc4c3F)c12 [Example 8] | < 100 nM | < 0.1 µM | < 100 nM | < 100 nM | < 100 nM
C#Cc1c(F)ccc2cc(O)cc(-c3ncc4c(N5CC6CCC(C5)N6)nc(OCC5(CN6CCCC(F)(F)C6)CC5)nc4c3F)c12 [Example 9] |  | < 0.1 µM | 100 to 1000 nM | < 100 nM | 100 to 1000 nM
C#Cc1c(F)ccc2cc(O)cc(-c3ncc4c(N5CC6CCC(C5)N6)nc(OCC5(CN6CCC[C@H](C#N)C6)CC5)nc4c3F)c12 [Example 10] |  | < 0.1 µM | < 100 nM | < 100 nM | < 100 nM
C#Cc1c(F)ccc2cc(O)cc(-c3ncc4c(N5CC6CCC(C5)N6)nc(OCC5(CN6CCC(C#N)CC6)CC5)nc4c3F)c12 [Example 11] |  | < 0.1 µM | < 100 nM | < 100 nM | < 100 nM
C#Cc1c(F)ccc2cc(O)cc(-c3ncc4c(N5CC6CCC(C5)N6)nc(OCC5(CN6CCC(OC)CC6)CC5)nc4c3F)c12 [Example 12] |  | < 0.1 µM | 100 to 1000 nM | < 100 nM | 100 to 1000 nM
C#Cc1c(F)ccc2cc(O)cc(-c3ncc4c(N5CC6CCC(C5)N6)nc(OCC5(CN6CC[C@H](F)C6)CC5)nc4c3F)c12 [Example 15] |  | < 0.1 µM | < 100 nM | < 100 nM | < 100 nM
C#Cc1c(F)ccc2cc(O)cc(-c3ncc4c(N5CC6CCC(C5)N6)nc(OCC5(CN6CCC[C@@H](F)C6)CC5)nc4c3F)c12 [Example 16] |  | < 0.1 µM | < 100 nM | < 100 nM | < 100 nM
C#Cc1cccc2cc(O)cc(-c3ncc4c(N5CC6CCC(C5)N6)nc(OCC5(CN6CCC(OC)CC6)CC5)nc4c3F)c12 [Example 17] |  | < 0.1 µM | 100 to 1000 nM | < 100 nM | 
C#Cc1c(F)ccc2cc(O)cc(-c3ncc4c(N5CC6CCC(C5)N6)nc(OCC5(CN6CCC(C(C)C)CC6)CC5)nc4c3F)c12 [Example 18] |  | < 0.1 µM | 100 to 1000 nM | < 100 nM | 
C#Cc1c(F)ccc2cc(O)cc(-c3ncc4c(N5CC6CCC(C5)N6)nc(OCC5(CN6CCC(OC(F)(F)F)CC6)CC5)nc4c3F)c12 [Example 20] | < 100 nM | < 0.1 µM | 100 to 1000 nM | < 100 nM | < 100 nM
C#Cc1c(F)ccc2cc(O)cc(-c3ncc4c(N5CC6CCC(C5)N6)nc(OCC5(CN6CC7CC7(C#N)C6)CC5)nc4c3F)c12 (stereo not drawn) [Example 21] | < 100 nM | < 0.1 µM | 100 to 1000 nM | < 100 nM | 100 to 1000 nM
C#Cc1c(F)ccc2cc(O)cc(-c3ncc4c(N5CC6CCC(C5)N6)nc(OCC5(CN6CCC([S+](C)[O-])CC6)CC5)nc4c3F)c12 (stereo not drawn) [Example 22] |  | 0.1 to 1 µM | > 1000 nM | > 1000 nM | > 1000 nM
C#Cc1c(F)ccc2cc(O)cc(-c3nc(N(C)C)c4c(N5CC6CCC(C5)N6)nc(OCC5(CN6CCC(F)CC6)CC5)nc4c3F)c12 [Example 23] | > 1000 nM | 0.1 to 1 µM | > 1000 nM | > 1000 nM | > 1000 nM
C#Cc1c(F)ccc2cc(O)cc(-c3ncc4c(N5CC6CCC(C5)N6)nc(OCC5(CN6CCC7(CC6)OCCO7)CC5)nc4c3F)c12 [Example 24] | < 100 nM | < 0.1 µM | 100 to 1000 nM | < 100 nM | > 1000 nM
C#Cc1c(F)ccc2cc(O)cc(-c3ncc4c(N5CC6CCC(C5)N6)nc(OCC5(CN6CCC(S(=O)(=O)N(C)C)CC6)CC5)nc4c3F)c12 [Example 25] | 100 to 1000 nM | < 0.1 µM | > 1000 nM | < 100 nM | 100 to 1000 nM
C#Cc1c(F)ccc2cc(O)cc(-c3ncc4c(N5CC6CCC(C5)N6)nc(OCC5(CN6CC=C(C(F)(F)F)CC6)CC5)nc4c3F)c12 [Example 26] | < 100 nM | < 0.1 µM | 100 to 1000 nM | < 100 nM | < 100 nM
C#Cc1c(F)ccc2cc(O)cc(-c3ncc4c(N5CC6CCC(C5)N6)nc(OCC(=C)CN5CCC(F)CC5)nc4c3F)c12 [Example 27] | < 100 nM | < 0.1 µM | 100 to 1000 nM | < 100 nM | 100 to 1000 nM
C#Cc1c(F)ccc2cc(O)cc(-c3nc(Cl)c4c(N5CC6CCC(C5)N6)nc(OCC5(CN6CCC(F)CC6)CC5)nc4c3F)c12 [Example 28] | < 100 nM | < 0.1 µM | 100 to 1000 nM | < 100 nM | < 100 nM
C#Cc1c(F)ccc2cc(O)cc(-c3nc(OC(F)F)c4c(N5CC6CCC(C5)N6)nc(OCC5(CN6CCC(F)CC6)CC5)nc4c3F)c12 [Example 35] | < 100 nM | < 0.1 µM |  | < 100 nM | < 100 nM
C#Cc1c(F)ccc2cc(O)cc(-c3nc(N)c4c(N5CC6CCC(C5)N6)nc(OCC5(CN6CCC(F)CC6)CC5)nc4c3F)c12 [Example 46] | < 100 nM | < 0.1 µM |  | < 100 nM | 100 to 1000 nM
C#Cc1c(F)ccc2cc(O)cc(-c3nc(OC(F)(F)F)c4c(N5CC6CCC(C5)N6)nc(OCC5(CN6CCC(F)CC6)CC5)nc4c3F)c12 [Example 47] | < 100 nM | < 0.1 µM |  | < 100 nM | < 100 nM
C#Cc1c(F)ccc2cc(O)cc(-c3nc(OC)c4c(N5CC6CCC(C5)N6)nc(OCC(=C)CN5CC6CC6C5)nc4c3F)c12 (stereo not drawn) [Example 48] | < 100 nM | < 0.1 µM |  | < 100 nM | < 100 nM
C#Cc1c(F)ccc2cc(O)cc(-c3nc(OC)c4c(N5CC6CCC(C5)N6)nc(OCC5(CN6CC7(CC(F)C7)C6)CC5)nc4c3F)c12 [Example 50] | < 100 nM | < 0.1 µM |  | < 100 nM | < 100 nM
C#Cc1c(F)ccc2cc(O)cc(-c3ncc4c(N5CC6CCC(C5)N6)nc(OCC56CCCN5C[C@H](F)C6)nc4c3F)c12 (stereo partly drawn) [Ref. 1, reference compound] | < 100 nM |  | < 100 nM | < 100 nM | 100 to 1000 nM
